Measured values as given in patent US20240002395A1, “COMPOUNDS AND THEIR USE FOR TREATING NEUROPATHIC PAIN” (The Johns Hopkins University, priority 2020, published 2024).

Legend:
human MrgprX1 = molecular target: T1, human MrgprX1 (Homo sapiens, UniProt Q96LB2); assay: MrgprX1 positive allosteric modulator (PAM) calcium FLIPR assay in HEK293 cells; assay type: cell-based; details: PAM activity in presence of EC20 concentration of BAM8-22; HEK293 cells stably transfected with human MrgprX1
T1 construct: expressed in transfected cells
T1 sequence (Q96LB2 whole entry): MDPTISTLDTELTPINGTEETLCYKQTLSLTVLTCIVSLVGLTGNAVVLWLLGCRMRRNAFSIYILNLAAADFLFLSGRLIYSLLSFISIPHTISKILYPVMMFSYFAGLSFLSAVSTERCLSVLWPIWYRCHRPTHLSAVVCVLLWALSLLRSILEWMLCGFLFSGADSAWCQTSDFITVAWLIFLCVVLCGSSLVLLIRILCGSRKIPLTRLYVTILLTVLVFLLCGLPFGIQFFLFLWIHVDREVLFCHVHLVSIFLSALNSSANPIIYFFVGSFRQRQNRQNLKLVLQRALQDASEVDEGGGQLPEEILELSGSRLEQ
Description: HEK293 cells stably transfected with human MrgprX1 were plated onto poly-D-lysine-coated, black-walled, 96-well plates at a seeding density of 12,000 cells/well and grown for two days. On the day of the experiment, cells were incubated with Fluo-4 AM 2 μM, pluronic acid 0.04% and Trypan Red 1% in HBSS (pH 7.4, 100 μL) for 1 h at 37° C. For each different passage of cells, a BAM8-22 dose response was first conducted and the BAM8-22 EC20 determined. Test compounds were then dissolved and serially diluted in DMSO, further diluted with Trypan Red (1%)-containing HBSS (50 μL) and added to cells (0.33% DMSO concentration by volume) to first monitor for agonist activity. After 2.5 min, BAM8-22 at 4-fold EC20 (50 μL) was added to cells (0.25% DMSO concentration by volume) and the cells imaged on the FLIPR for an additional 2 minutes to monitor the test compounds for PAM activity. Finally, data were normalized to fluorescence signals obtained from 250 nM of BAM8-22 (maximum) and BAM8-22 at its EC20 concentration (minimum). EC50 of a test compound was defined as the concentration required to provoke a response halfway between the minimum and maximum response in the presence of EC20 concentration of BAM8-22.

SMILES | EC50 (human MrgprX1) | melting point
CC(C)(C)c1sc2ncnc(Oc3ccnnc3)c2c1-c1ccc(Cl)c(Cl)c1 [Compound 7k, 6-tert-butyl-5-(3,4-dichlorophenyl)-4-(pyridazin-4-yloxy)thieno[2,3-d]pyrimidine] | > 100000 nM | 186 °C
COc1ncccc1Oc1ncnc2sc(C(C)(C)C)c(-c3ccc(Cl)c(Cl)c3)c12 [Compound 7i, 6-tert-butyl-5-(3,4-dichlorophenyl)-4-(2-methoxypyridin-3-yloxy)thieno[2,3-d]pyrimidine] |  | 173 °C
CC(C)(C)c1sc2ncnc(Oc3cccnc3OC(F)(F)F)c2c1-c1ccc(Cl)c(Cl)c1 [Compound 7h, 6-tert-butyl-5-(3,4-dichlorophenyl)-4-(2-(trifluoromethoxy)pyridin-3-yloxy)thieno[2,3-d]pyrimidine] | 4000 nM | 117 °C
Cc1ccccc1Oc1ncnc2sc(C(C)(C)C)c(-c3ccc(Cl)c(Cl)c3)c12 [Compound 7t, 6-tert-butyl-5-(3,4-dichlorophenyl)-4-(o-tolyloxy)thieno[2,3-d]pyrimidine] | 400 nM | 151 °C
Cc1ccccc1Oc1ncnc2oc(-c3ccccc3)cc12 [B, 6-Phenyl-4-(o-tolyloxy)furo[2,3-d]pyrimidine, reference compound] | 1000 nM | 
CC(C)(C)c1oc2ncnc(Oc3c(F)cccc3OC(F)(F)F)c2c1C(=O)N1CCCCC1 [Compound 7bk, (6-(tert-butyl)-4-(2-fluoro-6-(trifluoromethoxy)phenoxy)furo[2,3-d]pyrimidin-5-yl)(piperidin-1-yl)methanone] | 100 nM | 159 to 161 °C
CC(C)(C)c1sc2ncnc(Oc3ccccc3OC(F)(F)F)c2c1-c1cccc(Cl)c1 [Compound 7aq, 6-tert-butyl-5-(3-chlorophenyl)-4-(2-(trifluoromethoxy)phenoxy)thieno[2,3-d]pyrimidine] | 100 nM | 129 °C
CC(C)(C)c1sc2ncnc(Oc3ccc([N+](=O)[O-])cc3OC(F)(F)F)c2c1-c1ccc(Cl)c(Cl)c1 [Compound 7f, 6-tert-butyl-5-(3,4-dichlorophenyl)-4-(4-nitro-2-(trifluoromethoxy)phenoxy)thieno[2,3-d]pyrimidine] | > 100000 nM | 
CCN(CC)c1c(C(C)(C)C)sc2ncnc(Oc3c(F)cccc3OC(F)(F)F)c12 [Compound 7bj, 6-(tert-butyl)-N,N-diethyl-4-(2-fluoro-6-(trifluoromethoxy)phenoxy)thieno[2,3-d]pyrimidin-5-amine] | 70 nM | 72 °C
CC(C)(C)c1sc2ncnc(OC3CCCC3)c2c1-c1ccc(Cl)c(Cl)c1 [Compound 7z, 6-tert-butyl-4-(cyclopentyloxy)-5-(3,4-dichlorophenyl)thieno[2,3-d]pyrimidine] | 6000 nM | 112 °C
CC(C)(C)c1sc2ncnc(Oc3ccccc3C#N)c2c1-c1ccc(Cl)c(Cl)c1 [Compound 7v, 2-(6-tert-butyl-5-(3,4-dichlorophenyl)thieno[2,3-d]pyrimidin-4-yloxy)benzonitrile] | 500 nM | 
CC(C)(C)c1sc2ncnc(Oc3cccnc3N)c2c1-c1ccc(Cl)c(Cl)c1 [Compound 7j, 3-(6-tert-butyl-5-(3,4-dichlorophenyl)thieno[2,3-d]pyrimidin-4-yloxy)pyridin-2-amine] | 30000 nM | 207 °C
CC(C)(C)c1sc2ncnc(Oc3ccccc3OC(F)(F)F)c2c1-c1ccc(F)c(F)c1 [Compound 7am, 6-tert-butyl-5-(3,4-difluorophenyl)-4-(2-(trifluoromethoxy)phenoxy)thieno[2,3-d]pyrimidine] | 70 nM | 146 °C
COc1ccccc1Oc1ncnc2sc(C(C)(C)C)c(-c3ccc(Cl)c(Cl)c3)c12 [Compound 7q, 6-tert-butyl-5-(3,4-dichlorophenyl)-4-(2-methoxyphenoxy)thieno[2,3-d]pyrimidine] | 700 nM | 136 °C
CC(C)(C)c1sc2ncnc(Oc3ccccc3OC(F)(F)F)c2c1-c1cccc(F)c1 [Compound 7av, 6-tert-butyl-5-(3-fluorophenyl)-4-(2-(trifluoromethoxy)phenoxy)thieno[2,3-d]pyrimidine] | 100 nM | 150 °C
CC(C)(C)c1sc2ncnc(Oc3ccc(F)cc3)c2c1-c1ccc(Cl)c(Cl)c1 [Compound 7p, 6-tert-butyl-5-(3,4-dichlorophenyl)-4-(4-fluorophenoxy)thieno[2,3-d]pyrimidine] | 2000 nM | 179 °C
CC(C)(C)c1sc2ncnc(Oc3c(F)cccc3OC(F)(F)F)c2c1N1CCCCC1 [Compound 7bh, 6-(tert-butyl)-4-(2-fluoro-6-(trifluoromethoxy)phenoxy)-5-(piperidin-1-yl)thieno[2,3-d]pyrimidine] | 40 nM | 133 °C

SMILES | EC50 (human MrgprX1) | melting point
CC(C)(C)c1sc2ncnc(OC3CCCCC3C(F)(F)F)c2c1-c1ccc(Cl)c(Cl)c1 (stereo not shown) [Compound 7af, 6-tert-butyl-5-(3,4-dichlorophenyl)-4-(2-(trifluoromethyl)cyclohexyloxy)thieno[2,3-d]pyrimidine] | 100 nM | 139 °C
CC(C)(C)c1sc2ncnc(Oc3c(F)cccc3F)c2c1-c1cccc(Cl)c1 [Compound 7as, 6-tert-butyl-5-(3-chlorophenyl)-4-(2,6-difluorophenoxy)thieno[2,3-d]pyrimidine] | 50 nM | 146 °C
CC(C)(C)c1sc2ncnc(Oc3c(F)cccc3OC(F)(F)F)c2c1-c1cccc(Cl)c1 [Compound 7ar, 6-tert-butyl-5-(3-chlorophenyl)-4-(2-fluoro-6-(trifluoromethoxy)phenoxy)thieno[2,3-d]pyrimidine] | 30 nM | 126 °C
CC(C)(C)c1sc2ncnc(Oc3cccc(F)c3)c2c1-c1ccc(Cl)c(Cl)c1 [Compound 7o, 6-tert-butyl-5-(3,4-dichlorophenyl)-4-(3-fluorophenoxy)thieno[2,3-d]pyrimidine] | > 100000 nM | 144 °C
CN1CCCC(Oc2ncnc3sc(C(C)(C)C)c(-c4ccc(Cl)c(Cl)c4)c23)C1 (stereo not shown) [Compound 7ab, 6-tert-butyl-5-(3,4-dichlorophenyl)-4-(1-methylpiperidin-3-yloxy)thieno[2,3-d]pyrimidine] | 6000 nM | 
CC(C)(C)c1sc2ncnc(Oc3ccccc3F)c2c1-c1ccc(F)cc1 [Compound 7au, 6-tert-butyl-4-(2-fluorophenoxy)-5-(4-fluorophenyl)thieno[2,3-d]pyrimidine] | 300 nM | 194 °C
Cc1nc(Oc2ccccc2)c2ccsc2n1 [Compound 7ay, 2-methyl-4-phenoxythieno[2,3-d]pyrimidine] | 6000 nM | 100 °C
CC(C)(C)c1sc2ncnc(OC3CCCCC3F)c2c1-c1ccc(Cl)c(Cl)c1 (stereo not shown) [Compound 7ag, 6-tert-butyl-5-(3,4-dichlorophenyl)-4-(2-fluorocyclohexyloxy)thieno[2,3-d]pyrimidine] | 100 nM | 144 °C
CC(C)(C)c1sc2ncnc(Oc3c(F)cccc3F)c2c1N1CCOCC1 [Compound 7bi, 4-(6-(tert-butyl)-4-(2,6-difluorophenoxy)thieno[2,3-d]pyrimidin-5-yl)morpholine] | 40 nM | 173 °C
Cc1cccc(Oc2ncnc3oc(-c4ccccc4)cc23)c1C [C, 4-(2,3-Dimethylphenoxy)-6-phenylfuro[2,3-d]pyrimidine, reference compound] | 70000 nM | 
CC1CCCCC1Oc1ncnc2sc(C(C)(C)C)c(-c3ccc(Cl)c(Cl)c3)c12 (mixture of isomers) [Compound 7ac, 6-tert-butyl-5-(3,4-dichlorophenyl)-4-(2-methylcyclohexyloxy)thieno[2,3-d]pyrimidine] | 100 nM | 
CN(C)C(=O)COc1ncnc2scc(-c3ccc(F)cc3)c12 [Compound A, 2-((5-(4-Fluorophenyl)thieno[2,3-d]pyrimidin-4-yl)oxy)-N,N-dimethylacetamide, reference compound] | > 100000 nM | 
CCOC(=O)c1c(C(C)(C)C)sc2ncnc(Oc3c(F)cccc3OC(F)(F)F)c12 [Compound 7be, Ethyl 6-(tert-butyl)-4-(2-fluoro-6-(trifluoromethoxy)phenoxy)thieno[2,3 d]pyrimidine-5-carboxylate] | 60 nM | 
CC(C)(C)c1sc2ncnc(Oc3ccccc3F)c2c1-c1ccc(F)c(F)c1 [Compound 7aj, 6-tert-butyl-5-(3,4-difluorophenyl)-4-(2-fluorophenoxy)thieno[2,3-d]pyrimidine] |  | 171 °C
Cc1ccc(Oc2ncnc3sccc23)cc1 [E, 4-(p-Tolyloxy)thieno[2,3-d]pyrimidine, reference compound] | 900 nM | 
CC1CCCN1c1c(C(C)(C)C)sc2ncnc(Oc3c(F)cccc3OC(F)(F)F)c12 (stereo not shown) [Compound 7bg, 6-(tert-butyl)-4-(2-fluoro-6-(trifluoromethoxy)phenoxy)-5-(2-methylpyrrolidin-1-yl)thieno[2,3-d]pyrimidine] | 70 nM | 
CC(C)(C)c1sc2ncnc(OC3CCCCCC3)c2c1-c1ccc(Cl)c(Cl)c1 [Compound 7ae, 6-tert-butyl-4-(cycloheptyloxy)-5-(3,4-dichlorophenyl)thieno[2,3-d]pyrimidine] | 400 nM | 
